Test results reported in PubChem BioAssay (NCI).
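Test compounds were applied to cells in 96-well plates for 48 hours at 5 doses. The concentration for 50% growth inhibition is given as GI50. TGI denotes the concentration required for complete inhibition of growth.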

What was measured:
Assay in all cases: growth of human tumour cells (NCI), 48 h
HCC-2998 colon = system: HCC-2998 colon
HL-60(TB) leukemia = system: HL-60(TB) leukemia
UACC-257 melanoma = system: UACC-257 melanoma
PC-3 prostate = system: PC-3 prostate
NCI/ADR-RES ovarian = system: NCI/ADR-RES ovarian
ACHN renal = system: ACHN renal
TK-10 renal = system: TK-10 renal
NCI-H522 lung = system: NCI-H522 lung
SF-539 CNS = system: SF-539 CNS
HCT-15 colon = system: HCT-15 colon
786-0 renal = system: 786-0 renal
IGROV1 ovarian = system: IGROV1 ovarian
SW-620 colon = system: SW-620 colon
OVCAR-8 ovarian = system: OVCAR-8 ovarian
DU-145 prostate = system: DU-145 prostate
MALME-3M melanoma = system: MALME-3M melanoma
HOP-92 NSCLC = system: HOP-92 NSCLC
SK-OV-3 ovarian = system: SK-OV-3 ovarian
NCI-H226 lung = system: NCI-H226 lung
RPMI-8226 leukemia = system: RPMI-8226 leukemia
T-47D breast = system: T-47D breast
HCT-116 colon = system: HCT-116 colon
MCF7 breast = system: MCF7 breast
OVCAR-3 ovarian = system: OVCAR-3 ovarian
MDA-MB-231 breast = system: MDA-MB-231 breast
BT-549 breast = system: BT-549 breast
A498 renal = system: A498 renal
NCI-H23 lung = system: NCI-H23 lung
KM12 colon = system: KM12 colon
SR leukemia = system: SR leukemia
RXF 393 renal = system: RXF 393 renal
UACC-62 melanoma = system: UACC-62 melanoma
CCRF-CEM leukemia = system: CCRF-CEM leukemia
SK-MEL-2 melanoma = system: SK-MEL-2 melanoma
SF-268 CNS = system: SF-268 CNS
HT29 colon = system: HT29 colon
OVCAR-4 ovarian = system: OVCAR-4 ovarian
UO-31 renal = system: UO-31 renal
SF-295 CNS = system: SF-295 CNS
EKVX NSCLC = system: EKVX NSCLC
MOLT-4 leukemia = system: MOLT-4 leukemia
OVCAR-5 ovarian = system: OVCAR-5 ovarian
SK-MEL-5 melanoma = system: SK-MEL-5 melanoma
CAKI-1 renal = system: CAKI-1 renal
SN12C renal = system: SN12C renal
SNB-19 CNS = system: SNB-19 CNS
A549 NSCLC = system: A549 NSCLC
SK-MEL-28 melanoma = system: SK-MEL-28 melanoma
COLO 205 colon = system: COLO 205 colon
NCI-H460 lung = system: NCI-H460 lung
SNB-75 CNS = system: SNB-75 CNS
HS 578T breast = system: HS 578T breast
U251 CNS = system: U251 CNS
LOX IMVI melanoma = system: LOX IMVI melanoma
K-562 leukemia = system: K-562 leukemia
MDA-MB-435 = system: MDA-MB-435
HOP-62 NSCLC = system: HOP-62 NSCLC
M14 melanoma = system: M14 melanoma

O=C(/C=C/c1cc2ccccc2[nH]c1=O)c1ccc(Cl)cc1
GI50 (HCC-2998 colon): 25.1 µM
TGI (HCC-2998 colon): 56.6 µM
TGI (HL-60(TB) leukemia): > 100 µM
GI50 (UACC-257 melanoma): 33.5 µM
TGI (UACC-257 melanoma): > 77.7 µM
GI50 (PC-3 prostate): > 67.7 µM
TGI (PC-3 prostate): > 100 µM
GI50 (NCI/ADR-RES ovarian): 21.9 µM
TGI (NCI/ADR-RES ovarian): 56.2 µM
GI50 (ACHN renal): 33 µM
TGI (ACHN renal): > 64.9 µM
GI50 (TK-10 renal): 26.4 µM
TGI (TK-10 renal): > 59.3 µM
GI50 (NCI-H522 lung): 15.7 µM
TGI (NCI-H522 lung): 32.1 µM
GI50 (SF-539 CNS): 16.9 µM
TGI (SF-539 CNS): 39.3 µM
GI50 (HCT-15 colon): 20.2 µM
TGI (HCT-15 colon): > 58.7 µM
GI50 (786-0 renal): > 37.2 µM
TGI (786-0 renal): > 100 µM
GI50 (IGROV1 ovarian): 23.3 µM
TGI (IGROV1 ovarian): > 52.8 µM
GI50 (SW-620 colon): 20.5 µM
TGI (SW-620 colon): > 49.5 µM
GI50 (OVCAR-8 ovarian): 25.3 µM
TGI (OVCAR-8 ovarian): > 59.6 µM
GI50 (DU-145 prostate): 23 µM
TGI (DU-145 prostate): > 78.8 µM
GI50 (MALME-3M melanoma): 37.2 µM
TGI (MALME-3M melanoma): > 70.7 µM
GI50 (HOP-92 NSCLC): 21.6 µM
TGI (HOP-92 NSCLC): 76.8 µM
GI50 (SK-OV-3 ovarian): 55.1 µM
TGI (SK-OV-3 ovarian): > 100 µM
GI50 (NCI-H226 lung): 41 µM
TGI (NCI-H226 lung): > 73 µM
GI50 (RPMI-8226 leukemia): 13.8 µM
TGI (RPMI-8226 leukemia): 50.1 µM
GI50 (T-47D breast): 27.3 µM
TGI (T-47D breast): > 100 µM
GI50 (HCT-116 colon): 18 µM
TGI (HCT-116 colon): 49.1 µM
GI50 (MCF7 breast): 17.9 µM
TGI (MCF7 breast): > 100 µM
GI50 (OVCAR-3 ovarian): 27.3 µM
TGI (OVCAR-3 ovarian): > 67.6 µM
GI50 (MDA-MB-231 breast): 25.5 µM
TGI (MDA-MB-231 breast): 61.3 µM
GI50 (BT-549 breast): 24.9 µM
TGI (BT-549 breast): > 55.6 µM
GI50 (A498 renal): > 56.3 µM
TGI (A498 renal): > 100 µM
GI50 (NCI-H23 lung): 27.3 µM
TGI (NCI-H23 lung): 97.7 µM
GI50 (KM12 colon): 22.3 µM
TGI (KM12 colon): > 54.6 µM
GI50 (SR leukemia): 15.6 µM
TGI (SR leukemia): > 57.6 µM
GI50 (RXF 393 renal): 22.9 µM
TGI (RXF 393 renal): > 60.2 µM
GI50 (UACC-62 melanoma): 26.4 µM
TGI (UACC-62 melanoma): > 81.6 µM
GI50 (CCRF-CEM leukemia): 21.6 µM
TGI (CCRF-CEM leukemia): > 100 µM
GI50 (SK-MEL-2 melanoma): 30.1 µM
TGI (SK-MEL-2 melanoma): > 63.6 µM
GI50 (SF-268 CNS): 28 µM
TGI (SF-268 CNS): > 85.8 µM
GI50 (HT29 colon): 21 µM
TGI (HT29 colon): > 60.8 µM
GI50 (OVCAR-4 ovarian): 17.3 µM
TGI (OVCAR-4 ovarian): > 100 µM
GI50 (UO-31 renal): > 23 µM
TGI (UO-31 renal): > 100 µM
GI50 (SF-295 CNS): 23.2 µM
TGI (SF-295 CNS): > 72.6 µM
GI50 (EKVX NSCLC): 28.5 µM
TGI (EKVX NSCLC): > 100 µM
GI50 (MOLT-4 leukemia): 22.8 µM
TGI (MOLT-4 leukemia): > 100 µM
GI50 (OVCAR-5 ovarian): 38.2 µM
TGI (OVCAR-5 ovarian): 99 µM
GI50 (SK-MEL-5 melanoma): 47.6 µM
TGI (SK-MEL-5 melanoma): > 100 µM
GI50 (CAKI-1 renal): 16.8 µM
TGI (CAKI-1 renal): > 32.1 µM
GI50 (SN12C renal): 30.8 µM
TGI (SN12C renal): > 100 µM
GI50 (SNB-19 CNS): 28.2 µM
TGI (SNB-19 CNS): > 100 µM
GI50 (A549 NSCLC): 30.7 µM
TGI (A549 NSCLC): > 100 µM
GI50 (SK-MEL-28 melanoma): > 56.1 µM
TGI (SK-MEL-28 melanoma): > 89.8 µM
GI50 (COLO 205 colon): 37.4 µM
TGI (COLO 205 colon): > 80 µM
GI50 (NCI-H460 lung): 26.2 µM
TGI (NCI-H460 lung): > 57.3 µM
GI50 (SNB-75 CNS): 22.4 µM
TGI (SNB-75 CNS): 61.5 µM
GI50 (HS 578T breast): > 48 µM
TGI (HS 578T breast): > 100 µM
GI50 (U251 CNS): 19.1 µM
TGI (U251 CNS): > 48.5 µM
GI50 (LOX IMVI melanoma): 19.4 µM
TGI (LOX IMVI melanoma): > 60.5 µM
GI50 (K-562 leukemia): > 71.3 µM
TGI (K-562 leukemia): > 100 µM
GI50 (MDA-MB-435): 18.8 µM
TGI (MDA-MB-435): > 50.8 µM
GI50 (HOP-62 NSCLC): 29.6 µM
TGI (HOP-62 NSCLC): > 76.2 µM
GI50 (M14 melanoma): 28.7 µM
TGI (M14 melanoma): > 73.5 µM
